Experimental findings from article PMC7891696, “The molecular targets of ivermectin and lotilaner in the human louse Pediculus humanus humanus: New prospects for the treatment of pediculosis” (PLoS Pathogens, 2021) are described below.

By EC50 is commonly meant the midpoint of the concentration-response curve. Usually IC50 stands for the concentration that inhibits the measured activity by half.

Like-named read-outs stand apart in the source and are kept apart here.

For one assay, the target named is Phh-GluCl (Pediculus humanus humanus, UniProt A0A894TL71). Briefly: Two-electrode voltage-clamp on Xenopus laevis oocytes expressing Phh-GluCl. It is filed as cell-based. On the procedure: (§1) Defolliculated Xenopus laevis oocytes were purchased from Ecocyte Bioscience and maintained in incubation solution (100 mM NaCl, 2 mM KCl, 1.8 mM CaCl2.2H2O, 1 mM MgCl2.6H2O, 5 mM HEPES, 2.5 mM C3H3NaO3, pH 7.5 supplemented with penicillin 100 U/mL and streptomycin 100 μg/mL) at 19°C. Each oocyte was microinjected with 57 ng of cRNA encoding Phh-GluCl or Phh-RDL using a Drummond nanoject II microinjector. Three to five days after cRNA injection, two-electrode voltage-clamp recordings were performed with an oocyte clamp OC-725C amplifier (Warner instrument) at a holding potential of -80mV or -60 mV to assess the expression of the GluCl or RDL channels. Currents were recorded and analyzed using the pCLAMP 10.4 package (Molecular Devices). Concentration-response relationships for agonists were carried out by challenging oocytes with 10 s applications of increasing concentrations of compounds. […] For Phh-GluCl, the dose-response relationship for ivermectin was performed by applying each concentration of ivermectin for 20–30 s. Each oocyte received only one ivermectin concentration (≤ 30 nM) followed with a high ivermectin concentration (≥ 100 nM). Data were normalized to a first 100 μM glutamate apllication. […] Concentration-response curves for agonists were fitted with the following equation: Y=100/1+10^H(logEC50−X)

The target in assay [1] is T1, Phh-RDL (Pediculus humanus humanus, UniProt A0A894T8E6). Briefly: Two-electrode voltage-clamp on Xenopus laevis oocytes expressing Phh-RDL. The note with it: for concentration at which GABA-elicited currents were completely inhibited: 100 μM GABA. The format is cell-based. On the procedure:
as §1
Where Y is the normalized response, H is the Hill slope and X is the logarithm of concentration. The same equation was used for the concentration-response curves for antagonists by replacing logEC50 by logIC50. Results are expressed as mean +/- SEM and statistical analysis were performed using One-Way ANOVA with Tukey’s Multiple Comparisons Test. […] The corresponding concentration response curves were fitted using the following four parameter Hill equation: Y=Bottom+(Top−Bottom)/1+10^H(LogEC50−X)

For assay [2], the system named is human adult body lice (Pediculus humanus humanus). The assay can be described thus: Toxicity bioassay on adult human body lice (filter paper contact, survival and immobilization). The format is in vivo. The note with it: for lice killed or immobilized (death or knockdown rate): adult lice n = 44. On the procedure:
(§2) The colony of human body lice (Pediculus humanus humanus) were provided by Kosta Y. Mumcuoglu from the Kuvin Center for the Study of Infectious and Tropical Diseases, Hebrew University-Hadassah Medical School, Jerusalem, Israel. This laboratory-reared colony adapted to rabbit blood were fed four times per week for 20–30 min on rabbits and maintained at 30 ± 1°C and 60–70% relative humidity without exposure to any drugs. […] Nits (50 to 190 per condition) were incubated with lotilaner or ivermectin and hatching was monitored between six and nine days. Water and solution of 1% DMSO were used as negative controls. Pictures were recorded with a Motic Digital Microscope 143 Series and the Motic Image Plus 3.0 software.

Assay [3] addresses T1, Phh-RDL. Briefly: Two-electrode voltage-clamp on Xenopus laevis oocytes expressing Phh-RDL. It is filed as cell-based. To be noted: 1 μM ivermectin, 90 s application. (In general: Two-electrode voltage clamp is typically applied to oocytes expressing channels or transporters.)
The next assay deals with nits of human body lice. Briefly: Nit hatching test. The format is in vivo, Pediculus humanus humanus. To be noted: 100 μM, hatching between six and nine days after application, compared with water and 1% DMSO. On the procedure:
as §2

Setting [4] is: antagonism of 100 μM GABA current, 90 s preincubation, read-out: IC50.

Chain of Phh-GluCl (A0A894TL71 entry or part of it): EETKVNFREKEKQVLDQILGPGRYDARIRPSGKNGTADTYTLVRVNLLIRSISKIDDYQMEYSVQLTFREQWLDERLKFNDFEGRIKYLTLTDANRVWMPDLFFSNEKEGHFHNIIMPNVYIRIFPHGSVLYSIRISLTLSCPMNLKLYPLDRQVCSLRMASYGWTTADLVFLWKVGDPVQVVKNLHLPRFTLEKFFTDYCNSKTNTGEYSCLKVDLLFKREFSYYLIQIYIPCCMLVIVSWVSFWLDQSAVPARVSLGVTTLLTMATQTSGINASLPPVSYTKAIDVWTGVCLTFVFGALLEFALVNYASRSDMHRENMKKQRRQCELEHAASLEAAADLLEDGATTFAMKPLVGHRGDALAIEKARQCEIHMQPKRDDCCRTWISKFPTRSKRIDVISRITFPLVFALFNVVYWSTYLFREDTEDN
T1 sequence (A0A894T8E6 entry or part of it): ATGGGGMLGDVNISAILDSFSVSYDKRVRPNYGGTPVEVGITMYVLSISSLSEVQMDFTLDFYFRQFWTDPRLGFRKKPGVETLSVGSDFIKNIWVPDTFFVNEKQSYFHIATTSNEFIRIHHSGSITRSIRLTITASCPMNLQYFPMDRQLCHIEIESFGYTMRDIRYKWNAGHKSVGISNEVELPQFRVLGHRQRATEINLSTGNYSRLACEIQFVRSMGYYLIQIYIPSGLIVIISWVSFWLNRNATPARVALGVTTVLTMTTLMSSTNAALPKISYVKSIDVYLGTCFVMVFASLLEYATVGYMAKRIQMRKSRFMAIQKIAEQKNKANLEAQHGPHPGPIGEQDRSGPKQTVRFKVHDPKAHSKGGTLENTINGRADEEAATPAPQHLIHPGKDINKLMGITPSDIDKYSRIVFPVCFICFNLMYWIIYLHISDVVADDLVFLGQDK

The molecule `N[C@@H](CCC(=O)O)C(=O)O` [glutamate] gave an EC50 on Phh-GluCl of 9300 nM. For the same molecule, on Phh-GluCl (glutamate concentration-response curve), the Hill coefficient is on record as 1.9 +/- 0.5.

Turning to `NCCCC(=O)O` [GABA, γ-aminobutyric acid], the EC50 on Phh-RDL [1] is 16000 nM. For the same molecule, the Hill coefficient at Phh-RDL [1] (GABA concentration-response curve) is on record as 2.3 +/- 0.1. At Phh-RDL [1] (read-out: maximum current amplitude), the Emax turned out to be 97.95 ± 0.69%.

Regarding ivermectin, the “death rate of lice” value in assay [2] (10 μM, 24 h, adult lice) turned out to be 100%. The “death rate of lice” value in assay [2] (100 μM, 3 h, adult lice) is listed as 30%. Besides, the “lice killed or immobilized (death or knockdown rate)” value (“lice killed or immobilized” for short) in assay [2] (100 μM, 24 h) worked out at 100%. In addition, on Phh-GluCl, the “lowest concentration at which slow activation of the receptor was observed” value is on record as 10 nM and the “reversibility of the agonist effect” value is recorded as “not reversible”. The “current as % of the 1 mM glutamate-elicited current” value on Phh-GluCl (1 μM ivermectin) is given as 86.5 +/- 8.2%. The EC50 on Phh-GluCl (agonist, normalized to a first 100 μM glutamate application, read-out: EC50) amounted to 78.5 ± 30.2 nM. Besides, the “maximum agonist effect as % of the 1 mM response” value on Phh-RDL [3] is on record as 7.9 +/- 1.3%. The “effect on nit hatching” value in the assay with nits of human body lice was “absence of efficacy”. On Phh-RDL [1], the “IC50 on RDL receptor relative to EC50 for Phh-GluCl” value worked out at 4 fold and the “concentration at which GABA-elicited currents were completely inhibited” value was 3 µM. In addition, the “effect on GABA current at low concentration (potentiation)” value on Phh-RDL [1] (100 nM ivermectin coapplied with 3 μM GABA) is given as “increased the current amplitude”. Further, the “mode of action at higher concentration” value at Phh-RDL [1] (1 μM ivermectin) was “both an agonistic and antagonistic effect”. The “reversibility of the currents elicited” value on Phh-RDL [1] (0.3 to 30 μM, 90 seconds) is reported as “not reversible”. Moreover, the IC50 at Phh-RDL [1] (setting [4]) was 342 ± 14 nM.

On to `N#Cc1nn(-c2c(Cl)cc(C(F)(F)F)cc2Cl)c(N)c1[S+]([O-])C(F)(F)F` (stereo not drawn) [fipronil], for which the “lice killed or immobilized” value in assay [2] (100 μM, 24 h) is listed as 91%. Moreover, on Phh-RDL [1], inhibition was half-maximal at 138 ± 35.1 nM (IC50) and the agonist effect result is on record as “no agonist effect”.

As to picrotoxin, the “lice killed or immobilized” value in assay [2] (100 μM, 24 h) was “not efficient to kill the lice”. On Phh-RDL [1], the agonist effect result was “no agonist effect” and the “concentration at which GABA-elicited currents were completely inhibited” value is 30 µM. Also, the IC50 at Phh-RDL [1] (setting [4]) is 1160 ± 230 nM.

The molecule `Cc1cc(C2=NO[C@@](c3cc(Cl)c(Cl)c(Cl)c3)(C(F)(F)F)C2)sc1C(=O)NCC(=O)NCC(F)(F)F` [lotilaner] yielded a lice killed in assay [2] (1 μM, 24 h, adult lice) of 14%. In assay [2] (100 μM, 3 h, adult lice), the “death rate of lice” value is on record as “death of all lice”. Besides, the “concentration without effect on Phh-GluCl (30 μM) as multiple of the IC50 for Phh-RDL” value at Phh-GluCl (30 μM) is 737 fold. At Phh-GluCl (1 to 30 μM), the “agonist effect (current elicited)” value is given as “did not elicit any current”. In addition, the “inhibitory effect on glutamate-evoked currents” value against Phh-GluCl (1 to 30 μM, co-application with 100 μM glutamate) was “no significant inhibitory effect”. In the assay with nits of human body lice, the “effect on nit hatching” value is on record as “absence of efficacy”. On Phh-RDL [1], the agonist effect result was “no agonist effect”. In addition, on Phh-RDL [1] (competitive assay, GABA dose-response with 1 nM and 10 nM lotilaner), the type of inhibition entry is listed as “non-competitive antagonist”. The IC50 on Phh-RDL [1] (read-out: IC50) turned out to be 40.7 nM.
